Reference: article PMC10244169, “Psychedelics promote plasticity by directly binding to BDNF receptor TrkB” (Nature Neuroscience, 2023)

Tested on: dendritic arbor complexity of neuronal cultures
Assay: Dendritogenesis (Sholl analysis) in neuronal cultures (WT and Y433F^+/−)
Type: cell-based, mouse
Method in brief: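 Some cultures were pretreated 10 min with TrkB.FC (200 ng ml^−1) or M100907 (100 nM), which stayed in the medium alongside cumulative psychedelic doses. Sholl analysis counted dendritic intersections every 5 μm from the soma.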

CCN(CC)C(=O)C1C=C2c3cccc4[nH]cc(c34)CC2N(C)C1 (stereo not drawn) [LSD, lysergic acid diethylamide]
6g: Mean (dendritogenesis, Sholl analysis) (WT neurons, vehicle mean 32.96): 75.11 | 6g: Mean Diff. (vehicle vs. treatment), Bonferroni's multiple comparisons test (WT:vehicle minus WT:treatment): -42.15 | 6g: Mean (dendritogenesis, Sholl analysis) (Y433F+/- neurons, vehicle mean 44.44): 47.24 | 6g: Mean Diff. (vehicle vs. treatment), Bonferroni's multiple comparisons test (Y433F+/-:vehicle minus Y433F+/-:treatment): -2.791 | dendritic arbor complexity (cultures from WT mice): enhance dendritic arbor complexity | dendritic arbor complexity (cultures from Y433F^+/− mice): not Y433F^+/− mice | dendritic arbor complexity, Mean Diff. (Vehicle:vehicle vs. group) (fig 6i, Bonferroni's multiple comparisons test): -41.23 | dendritic arbor complexity, group mean (Mean 2) (fig 6i, treatment:pretreatment groups, Vehicle:vehicle mean 69.72): 110.9 | Sholl analysis, Mean at distance from soma (fig 6j, distance from soma 10 µm): 8.895 | Sholl analysis, Mean at distance from soma (fig 6j, distance from soma 15 µm): 10.2632 | Sholl analysis, Mean at distance from soma (fig 6j, distance from soma 20 µm): 10.421 | Sholl analysis, Mean at distance from soma (fig 6j, distance from soma 25 µm): 9.211 | Sholl analysis, Mean at distance from soma (fig 6j, distance from soma 30 µm): 8.842 | Sholl analysis, Mean at distance from soma (fig 6j, distance from soma 35 µm): 8.316 | Sholl analysis, Mean at distance from soma (fig 6j, distance from soma 40 µm): 6.789 | Sholl analysis, Mean at distance from soma (fig 6j, distance from soma 45 µm): 6.368 | Sholl analysis, Mean at distance from soma (fig 6j, distance from soma 50 µm): 6.368 | Sholl analysis, Mean at distance from soma (fig 6j, distance from soma 55 µm): 4.737 | Sholl analysis, Mean at distance from soma (fig 6j, distance from soma 60 µm): 4.526 | Sholl analysis, Mean at distance from soma (fig 6j, distance from soma 65 µm): 3.895 | Sholl analysis, Mean at distance from soma (fig 6j, distance from soma 70 µm): 3.526 | Sholl analysis, Mean at distance from soma (fig 6j, distance from soma 75 µm): 3.158 | Sholl analysis, Mean at distance from soma (fig 6j, distance from soma 80 µm): 3.158 | Sholl analysis, Mean at distance from soma (fig 6j, distance from soma 85 µm): 3.316 | Sholl analysis, Mean at distance from soma (fig 6j, distance from soma 90 µm): 3.105 | Sholl analysis, Mean at distance from soma (fig 6j, distance from soma 95 µm): 3.211 | Sholl analysis, Mean at distance from soma (fig 6j, distance from soma 100 µm): 2.842 | Sholl analysis, Mean at distance from soma (fig 6h, distance from soma 25 µm): 4.059 | Sholl analysis, Mean at distance from soma (fig 6h, distance from soma 30 µm): 3.529 | Sholl analysis, Mean at distance from soma (fig 6h, distance from soma 35 µm): 3 | Sholl analysis, Mean at distance from soma (fig 6h, distance from soma 40 µm): 3.059 | Sholl analysis, Mean at distance from soma (fig 6h, distance from soma 45 µm): 2.412 | Sholl analysis, Mean at distance from soma (fig 6h, distance from soma 50 µm): 2.471 | Sholl analysis, Mean at distance from soma (fig 6h, distance from soma 55 µm): 2.294 | Sholl analysis, Mean at distance from soma (fig 6h, distance from soma 60 µm): 1.882 | Sholl analysis, Mean at distance from soma (fig 6h, distance from soma 65 µm): 1.765 | Sholl analysis, Mean at distance from soma (fig 6h, distance from soma 70 µm): 1.294 | Sholl analysis, Mean at distance from soma (fig 6h, distance from soma 75 µm): 1.353 | Sholl analysis, Mean at distance from soma (fig 6h, distance from soma 80 µm): 1.353 | Sholl analysis, Mean at distance from soma (fig 6h, distance from soma 85 µm): 1 | Sholl analysis, Mean at distance from soma (fig 6h, distance from soma 90 µm): 1.059 | Sholl analysis, Mean at distance from soma (fig 6h, distance from soma 95 µm): 1 | Sholl analysis, Mean at distance from soma (fig 6h, distance from soma 100 µm): 0.7059 | 6h: Mean (Sholl analysis) (first 6h table (N as WT), distance from soma 10 µm): 6.789 | 6h: Mean (Sholl analysis) (first 6h table (N as WT), distance from soma 15 µm): 8.684 | 6h: Mean (Sholl analysis) (first 6h table (N as WT), distance from soma 20 µm): 8.526 | 6h: Mean (Sholl analysis) (first 6h table (N as WT), distance from soma 25 µm): 6.474 | 6h: Mean (Sholl analysis) (first 6h table (N as WT), distance from soma 30 µm): 6 | 6h: Mean (Sholl analysis) (first 6h table (N as WT), distance from soma 35 µm): 5.211 | 6h: Mean (Sholl analysis) (first 6h table (N as WT), distance from soma 40 µm): 3.632 | 6h: Mean (Sholl analysis) (first 6h table (N as WT), distance from soma 45 µm): 3.474 | 6h: Mean (Sholl analysis) (first 6h table (N as WT), distance from soma 50 µm): 3 | 6h: Mean (Sholl analysis) (first 6h table (N as WT), distance from soma 55 µm): 2.684 | 6h: Mean (Sholl analysis) (first 6h table (N as WT), distance from soma 60 µm): 3.105 | 6h: Mean (Sholl analysis) (first 6h table (N as WT), distance from soma 65 µm): 2.579 | 6h: Mean (Sholl analysis) (first 6h table (N as WT), distance from soma 70 µm): 2.421 | 6h: Mean (Sholl analysis) (first 6h table (N as WT), distance from soma 75 µm): 2.263 | 6h: Mean (Sholl analysis) (first 6h table (N as WT), distance from soma 80 µm): 2.421 | 6h: Mean (Sholl analysis) (first 6h table (N as WT), distance from soma 85 µm): 2 | 6h: Mean (Sholl analysis) (first 6h table (N as WT), distance from soma 90 µm): 2.421 | 6h: Mean (Sholl analysis) (first 6h table (N as WT), distance from soma 95 µm): 1.632 | 6h: Mean (Sholl analysis) (first 6h table (N as WT), distance from soma 100 µm): 1.789 | 6h: Mean (Sholl analysis) (second 6h table (N as Y433F), distance from soma 10 µm): 5.294
